What all share (format): in vivo, human
The test system of assay [1] is sweat apparatus (glands or ducts) of patients with idiopathic hypohidrosis. The experiment in a line: Injection of Carbachol to locate the pathology in idiopathic hypohidrosis (induction of sweating).
The subject of assay [2] is patients with idiopathic hypohidrosis. Put plainly: Treatment of fourteen patients with idiopathic hypohidrosis with oral retinoids (exercise, starch-iodine sweat test, HD-OCT). The note with it: for patients who responded and were successfully treated: generalised hypohidrosis, three with acitretin (one did not respond). The procedure:
Fourteen patients presenting with idiopathic hypohidrosis underwent monitored exercising on a stationary bicycle for 20 minutes. Their temperature and heart rate were repeatedly measured during the exercise. Subsequently, using a spray gun, starch-iodine powder was sprayed onto the whole body of the patient and the powder coats onto the skin (FIG. 1). The coat of powder on body areas with sweating turned purple, while the powder in areas without sweat remained brown (FIG. 2). This allows the body surface area of anhidrosis to be assessed. Thereafter, the patient rinsed off the powder, which washed off easily with water.
The patients' skin was subsequently imaged using high-definition optical coherence tomography (HD-OCT) non-invasive skin imaging (Skintell, Agfa, Belgium). HD-OCT uses an infrared (1000-1700 nm), interferometric and time-domain imaging technique. Instead of a single pin diode light detector, it uses a two-dimensional imaging array to allow for simultaneous cross-sectional and en face images acquisition. A high lateral resolution of 3 μm is ensured using a technique called continuous focus tracking. The capture of a 3D image (containing 57 million voxels) takes 2-3 seconds and the information acquired can subsequently be digitally analysed.
The fourteen patients suffering from idiopathic hypohidrosis were offered treatment according to the invention.
All of the treated patients were started on an oral dose of isotretinoin or acitretin of between 5 and 20 mg once daily for at least six weeks. If necessary, this dose was adjusted, whether increased because the initial dose was ineffective, or decreased to reduce the expected side effects associated with oral retinoids. All patients responded to a dose of between 10 and 30 mg once daily. This dose was further adjusted as required until symptoms of idiopathic hypohidrosis had resolved. Administration of retinoids was continued to prevent reoccurrence of symptoms.

Assay [3] has the same test system. Put plainly: Long term retrospective assessment of 28 patients with idiopathic hypohidrosis, 20 treated with retinoids. As to the method: A retrospective analysis on patients with isolated hypohidrosis who attended a neuro-dermatology clinic over a 5.75-year period was conducted. All patients routinely underwent standardized exercising and whole-body starch-iodine test, followed by non-invasive HD-OCT skin imaging, and their treatment history was analysed.
28 patients with idiopathic hypohidrosis were included in the study, 14 of whom were affected in a generalised manner (with 70% and more of body surface affected) and 14 in a partial manner. 14 of the 28 patients were those which were the subject of Example 1, and 14 patients were new.

Setting [4] is: five treated with isotretinoin, oral once daily.
[5] abbreviates: one patient successfully treated with isotretinoin.

Each structure is given as a SMILES string.

For the molecule `C[N+](C)(C)CCOC(N)=O` [Carbachol], the induction of sweating result in assay [1] (injection at regions where patients could sweat) is “induced sweating”; in assay [1] (injection in areas where patients cannot sweat) it was “could not do so”.
On to `COc1cc(C)c(/C=C/C(C)=C/C=C/C(C)=C/C(=O)O)c(C)c1C` [acitretin], for which, in assay [2] (setting [4]), the “patients who responded and were successfully treated” value is given as “Two of the three”. This molecule also yielded a patients recovered in assay [3] (of three patients treated, one did not respond) of 2 patients.
Turning to `CC1=C(/C=C/C(C)=C/C=C/C(C)=C\C(=O)O)C(C)(C)CCC1` [isotretinoin, 13-cis-retinoic acid], in assay [2] (setting [4]), the “patients who responded and were successfully treated” value was “All five”. In assay [2] (setting [5]), the “HD-OCT imaging of lesions after treatment” value is reported as “no longer visible” and the “sweat test after treatment” value is “normalised extent of sweating”. Also, the “patients who responded to treatment and were successfully treated” value in assay [2] (partial hypohidrosis, five treated with isotretinoin, oral once daily) is on record as “All five”. For the same molecule, in assay [3] (seventeen patients (7 generalised and 10 partial), oral), the “patients recovered well enough to return to their pre-morbid sporting activities” value worked out at 100%.
